Source: US20230118795A1, “ARYL OR HETEROARYL PYRIDONE OR PYRIMIDINE DERIVATIVE, PREPARATION METHOD AND USE THEREOF” (SUZHOU ZELGEN BIOPHARMACEUTICALS CO., LTD., priority 2020, published 2023)

System: NCI-H358 (KRAS^G12C mutation) cell
Assay: Cell assay of antiproliferative activity against NCI-H358 cell (Celltiter-Glo, 5 days)
Assay type: cell-based
Settings: Homo sapiens, NCI-H358, 120 h, 5 days incubation
Description: Cell Assay of Antiproliferative Activity of Compounds Against NCI-H358 (KRAS^G12C Mutation) Cell.
40 μL phosphate buffer was added to the outer wells of the 384 microplate, and 40 μL cell suspension to be tested was added to the other wells. Then the microplate was incubated in a carbon dioxide incubator overnight.
The compounds to be tested were gradiently diluted, each compound was performed 10 concentration gradients (diluted from 50 μM to 0.003 μM) and added 100 nL to the corresponding wells in the microplate. After addition, 40 μl of phosphate buffer was added to each well in rows A and P and columns 1 and 24, and then the microplate was incubated in a carbon dioxide incubator for 5 days.
20 μL of Promega Celltiter-Glo reagent was added to each well of the microplate, and then the luminescence signal was stabilized by oscillating at room temperature for 10 min. Then PekinElmer Envision multi-label analyzer was used to read.
Finally, GraphPad Prism software was used to calculate the IC50 value of the compound and the fitting curve was drawn.
Anti-proliferative activity of the compounds of the present invention against NCI-H358 (KRAS^G12C mutation) cell was shown in Table 1.

Row | SMILES | IC50 [µM]
1 | C=CC(=O)N1CCN(c2nc(=O)n(-c3c(C)cccc3S(C)(=O)=O)c3nc(-c4c(F)cccc4Cl)c(F)cc23)[C@@H](C)C1 [Example 59, 4-((S)-4-acryloyl-2-methylpiperazin-1-yl)-7-(2-chloro-6-fluorophenyl)-6-fluoro-1-(2-methyl-6-(methylsulfonyl)phenyl) pyridino [2,3-d] pyrimidin-2(1H)-one] | 0.2
2 | C=CC(=O)N1CCN(c2nc(=O)n(-c3ccccc3S(C)(=O)=O)c3nc(-c4c(O)cccc4F)c(F)cc23)C(CC#N)C1 (centres unmarked) [Example 60, 2-(4-acryloyl-1-(6-fluoro-7-(2-fluoro-6-hydroxyphenyl)-1-(2-(methylsulfonyl)phenyl)-2-oxo-1,2-dihydropyridino [2,3-d]pyrimidin-4-yl)piperazin-2-yl) acetonitrile] | > 10
3 | C=CC(=O)N1CCN(c2nc(=O)n(-c3c(C(C)C)cccc3S(C)(=O)=O)c3nc(-c4ccc(C#N)cc4Cl)c(F)cc23)[C@@H](C)C1 [Example 66, (S)-4-(4-(4-acryloyl-2-methylpiperazin-1-yl)-6-fluoro-1-(2-isopropyl-6-(methylsulfonyl)phenyl)-2-oxo-1,2-dihydropyridino [2,3-d]pyrimidin-7-yl)-3-chlorobenzonitrile] | > 10
4 | C=CC(=O)N1CCN(c2nc(=O)n(-c3c(C(C)C)cccc3S(C)(=O)=O)c3nc(-c4c(Cl)cccc4C#N)c(F)cc23)[C@@H](C)C1 [Example 67] | > 10

The remaining lines, values ahead:

Row | IC50 [µM] | SMILES
5 | > 10 | C=CC(=O)N1CCN(c2nc(=O)n(-c3ccccc3S(C)(=O)=O)c3nc(-c4c(O)cccc4F)c(F)cc23)C(CC(N)=O)C1 (centres unmarked) [Example 61, 2-(4-acryloyl-1-(6-fluoro-7-(2-fluoro-6-hydroxyphenyl)-1-(2-(methylsulfonyl)phenyl)-2-oxo-1,2-dihydropyridino [2,3-d]pyrimidin-4-yl)piperazin-2-yl) acetamide]
6 | 0.37 | C=CC(=O)N1C[C@H](C)N(c2nc(=O)n(-c3c(C4CCC4)cccc3S(C)(=O)=O)c3nc(-c4c(O)cccc4F)c(F)cc23)C[C@H]1C [Example 63A]
7 | 0.12 | C=CC(=O)N1CCN(c2nc(=O)n(-c3c(C(C)C)cccc3S(C)(=O)=O)c3nc(-c4cc(C#N)ccc4Cl)c(F)cc23)[C@@H](C)C1 [Example 64, (S)-3-(4-(4-acryloyl-2-methylpiperazin-1-yl)-6-fluoro-1-(2-isopropyl-6-(methylsulfonyl)phenyl)-2-oxo-1,2-dihydropyridino[2,3-d]pyrimidin-7-yl)-4-chlorobenzonitrile]
8 | > 10 | C=CC(=O)N1CCN(c2nc(=O)n(-c3c(C(C)C)cccc3S(C)(=O)=O)c3nc(-c4cccc(C#N)c4Cl)c(F)cc23)[C@@H](C)C1 [Example 65, (S)-3-(4-(4-acryloyl-2-methylpiperazin-1-yl)-6-fluoro-1-(2-isopropyl-6-(methylsulfonyl)phenyl)-2-oxo-1,2-dihydropyridino[2,3-d]pyrimidin-7-yl)-2-chlorobenzonitrile]
9 | 2.2 | C=CC(=O)N1CCN(c2nc(=O)n(-c3c(C(C)C)cccc3S(C)(=O)=O)c3nc(-c4ccnn4C)c(F)cc23)[C@@H](C)C1 [Example 68, (S)-4-(4-acryloyl-2-methylpiperazin-1-yl)-6-fluoro-1-(2-isopropyl-6-(methylsulfonyl)phenyl)-7-(1-methyl-1H-pyrazol-5-yl) pyridino [2,3-d] pyrimidin-2(1H)-one]
10 | > 10 | C=CC(=O)N1CCN(c2nc(=O)n(-c3c(C(C)C)cccc3S(C)(=O)=O)c3nc(-c4ccn[nH]4)c(F)cc23)[C@@H](C)C1 [Example 69, (S)-4-(4-acryloyl-2-methylpiperazin-1-yl)-6-fluoro-1-(2-isopropyl-6-(methylsulfonyl)phenyl)-7-(1H-pyrazol-5-yl) pyridino[2,3-d] pyrimidin-2(1H)-one]
11 | > 10 | C=CC(=O)N1CCN(c2nc(=O)n(-c3c(C(C)C)cccc3S(C)(=O)=O)c3nc(-c4cncn4C)c(F)cc23)[C@@H](C)C1 [Example 70, (S)-4-(4-acryloyl-2-methylpiperazin-1-yl)-6-fluoro-1-(2-isopropyl-6-(methylsulfonyl)phenyl)-7-(1-methyl-1H-imidazol-5-yl) pyridino [2,3-d] pyrimidin-2 (1H)-one]
